In patent publication US12042478B2, “(R)-2-[(2H-1,3-benzodioxol-5-yl)methyl]pyrrolidine and processes for preparation, compositions and uses thereof” (Pharmala Biotech Inc., priority 2022, dated 2024):

Columns and labels:
DAT = DAT (Homo sapiens, UniProt Q01959); test: QSAR model predicted IC50, DAT; conditions: ratio = 1/DAT IC50:1/SERT IC50, from predicted IC50
Description: In silico studies (QSAR and docking) are useful tools to understand drug mechanisms, and they are relatively cheaper and faster than experiments. A QSAR model was created for each monoamine transporter. Additionally, the docking properties of phenethylamines were investigated.
QSAR: DAT, SERT and NET IC50 values were collected from the literature for 73 phenethylamines. Three different software's were used for descriptor calculations, and almost 2000 descriptors were calculated. Highly correlated descriptors were eliminated before multi-linear regression (MLR) analysis. All descriptors were merged with experimental inhibition values in QSARiNS software. The multi-Criteria Decision-Making tool of QSARiNS was used to pick the best model.
The predicted IC^50 (mM) values of the test molecules generated based on the QSAR developed as described above are presented in Table 4.

C57 and BTBR mice [1] = test: Conditioned place preference; type: in vivo, mouse
Description: The same 2-compartment chambers as described above in the social preference studies for conditioned place preference. For these studies, compartments are differentiated by floor texture (rough black plastic vs steel punch plate) and wall pattern (vertical vs. horizontal stripes.) An initial preference/habituation test was first run where mice were able to freely traverse the apparatus for 30 minutes. The following day, mice were assigned to receive saline in one compartment and drug in the other. Saline pairings occurred in the morning, drug pairings occurred in the afternoon, and were separated by at least 4 hours, during which time mice returned to their home cages. Three such pairings were performed, where mice were injected, returned to the home cage for a 15 min pretreatment period, then confined to the injection-appropriate compartment for 30 minutes. Half the subjects (within strain) received drug pairings on the plastic floor+vertical stripes side, and the other half received drug pairings on the punch plate floor+horizontal stripes side. […] The post-conditioning preference test was identical to the initial preference/habituation session, where mice were freely able to traverse the apparatus for 30 minutes. Time spent in each compartment was recorded, and expressed as a preference score for the drug paired side (calculated as time spent in that compartment during the post-test—time spent there during the pre-test.) All preference and conditioning sessions were conducted under the same low light conditions as in the social preference tests.

C57 and BTBR mice [2] = test: Social preference procedure: social novelty preference test; type: in vivo, mouse
Description: (§1) All drugs were dissolved in physiological 0.9% saline and administered at a constant volume of 1 ml/100 g body weight. Because all drugs utilized in these studies were synthesized as hydrochloride (HCl) salts, they were weighed as salts prior to the preparation of all solutions. All drugs at all concentrations are readily dissolved in an aqueous solution at normal pH. Injections of all drugs were administered intraperitoneally (IP) to mimic pharmacokinetic parameters typical of oral administration, without the behaviour-impairing effects of gavage stress.
(§2) This assay was conducted in adult male C57 and BTBR mice (n=6 per group) in a dedicated conditioning room where ambient light, sound, and human contact were tightly controlled.
Social preference chambers consisted of two polycarbonate boxes (13.5 cm wide×22.5 cm tall×31.0 cm deep), floored with rough-textured black ABS plastic, and connected to one another by a 1.25″ PVC T-junction. An infrared photobeam emitter/detector array was mounted at each intersection of the T-junction and each preference compartment, and as a mouse traversed the apparatus, it would break the photobeam upon entry to or exit from each preference compartment. Beam breaks started or stopped a counter on an interfaced computer, allowing automated collection of time spent in each compartment. […]

C57 and BTBR mice [3] = test: Social preference procedure: novelty preference test; type: in vivo, mouse; conditions: 1 mg/kg IP
Description: as §1, §2
Social preference chambers consisted of two polycarbonate boxes (13.5 cm wide×22.5 cm tall×31.0 cm deep), floored with rough-textured black ABS plastic, and connected to one another by a 1.25″ PVC T-junction. An infrared photobeam emitter/detector array was mounted at each intersection of the T-junction and each preference compartment, and as a mouse traversed the apparatus, it would break the photobeam upon entry to or exit from each preference compartment. Beam breaks started or stopped a counter on an interfaced computer, allowing automated collection of time spent in each compartment. At the end of each test, data were reported as time (in seconds) spent in each compartment, the number of entries into each compartment, and the average time spent in each compartment following an entry. Social preference tests were conducted in an iterative manner, with each test subject completing four distinct phases as described below. Between testing sessions, chambers were sanitized by wiping the insides with a disinfectant product provided by the UAMS Department of Laboratory Animal Medicine. At the end of the week (upon completion of all phases of the procedure), each apparatus was disassembled and all parts were sanitized. No food or water were available during social preference sessions, but were available in the home cage immediately afterwards. […]

C57 and BTBR mice [4] = test: Social preference procedure: sociability test; type: in vivo, mouse; conditions: 1 mg/kg IP
Description: as §1, §2
(§3) Social preference chambers consisted of two polycarbonate boxes (13.5 cm wide×22.5 cm tall×31.0 cm deep), floored with rough-textured black ABS plastic, and connected to one another by a 1.25″ PVC T-junction. An infrared photobeam emitter/detector array was mounted at each intersection of the T-junction and each preference compartment, and as a mouse traversed the apparatus, it would break the photobeam upon entry to or exit from each preference compartment. Beam breaks started or stopped a counter on an interfaced computer, allowing automated collection of time spent in each compartment. At the end of each test, data were reported as time (in seconds) spent in each compartment, the number of entries into each compartment, and the average time spent in each compartment following an entry. Social preference tests were conducted in an iterative manner, with each test subject completing four distinct phases as described below. Between testing sessions, chambers were sanitized by wiping the insides with a disinfectant product provided by the UAMS Department of Laboratory Animal Medicine. At the end of the week (upon completion of all phases of the procedure), each apparatus was disassembled and all parts were sanitized. No food or water were available during social preference sessions, but were available in the home cage immediately afterwards.
A single sociability session occurred the day after the novelty preference test, where one compartment contained a wire mesh cup with a dummy mouse inside while the other compartment contained a male NIH Swiss stranger mouse inside the previously empty cup (see FIG. 4). […] The position of the dummy mouse (left or right compartment) remained the same for each subject as during the novelty test the day before, thereby counterbalancing the position of the stranger mouse across subjects. NIH Swiss stranger mice were similar in mass and appearance to the dummy PVC mice, and were housed separately from the experimental subjects (C57 and BTBR mice) in the colony facility. The first time the experimental subjects ever encountered the stranger mice was when they entered the compartment where they were contained. During this session, mice were weighed, administered the same injection as the day before, and returned to their home cage for a 30 min pretreatment period. Mice were then introduced into the T-junction and allowed to explore both preference compartments for 15 minutes. Sociability tests always occurred on Wednesdays or Thursdays to prevent any weekend testing.

C57 and BTBR mice [5] = test: Compartment entries during social novelty test (proxy for locomotor stimulant effects); type: in vivo, mouse; conditions: 1 mg/kg, C57 mice, relative to saline
Excerpt: as §3
Quantifying total entries into the preference compartments provides a proxy measurement for locomotor stimulant effects of the various doses of the various test drugs. This establishes a limit to the drug doses that can be tested in the social preference procedure, as induction of locomotor stimulant effects confounds preference assessments (because mice stop attending to the social stimuli in each compartment and instead spend their time engaged in locomotor behavior.) Motor activity varies across the distinct phases of social preference testing, in part because the habituation session is twice as long (30 minutes) as the novelty, sociability, and social novelty tests (15 minutes each), but also because mice emit high levels of exploratory behavior in novel environments. Thus, as familiarity with the test apparatus increases over successive exposures to the chambers, the number of entries decreases.
(Note that entries were collected for every test, but drug effects on entries during earlier phases may be less reliable due to the confounding influence of changing familiarity with the apparatus across phases.)

[6] = 3 mg/kg, x3 pairings, C57 and BTBR mice

Chain of DAT (Q01959 whole entry, species assumed): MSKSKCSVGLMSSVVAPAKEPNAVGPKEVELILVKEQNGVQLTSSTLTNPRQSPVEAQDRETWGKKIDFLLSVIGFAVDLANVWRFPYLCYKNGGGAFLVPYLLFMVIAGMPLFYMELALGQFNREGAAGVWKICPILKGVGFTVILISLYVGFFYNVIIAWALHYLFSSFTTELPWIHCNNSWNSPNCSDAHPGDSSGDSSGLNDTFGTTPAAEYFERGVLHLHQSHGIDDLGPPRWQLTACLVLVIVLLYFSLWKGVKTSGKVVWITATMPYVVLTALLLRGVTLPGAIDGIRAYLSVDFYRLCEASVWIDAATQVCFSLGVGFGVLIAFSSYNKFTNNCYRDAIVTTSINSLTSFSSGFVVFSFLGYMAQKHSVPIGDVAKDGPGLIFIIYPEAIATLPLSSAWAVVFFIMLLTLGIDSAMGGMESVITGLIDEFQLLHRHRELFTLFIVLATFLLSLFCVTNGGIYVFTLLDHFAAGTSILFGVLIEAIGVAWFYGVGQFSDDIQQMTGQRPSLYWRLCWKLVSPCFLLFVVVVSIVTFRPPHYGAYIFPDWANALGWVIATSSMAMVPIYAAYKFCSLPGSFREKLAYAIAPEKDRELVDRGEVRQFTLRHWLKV

CN[C@@H](C)Cc1ccc2c(c1)OCO2 [S-MDMA, reference compound]
DAT/SERT (calculated) (DAT): 0.383
place conditioning (place preference) (C57 and BTBR mice [1]; [6]): significant place preferences

CN[C@H](C)Cc1ccc2c(c1)OCO2 [R-MDMA, reference compound]
DAT/SERT (calculated) (DAT): 0.010
place conditioning (place preference) (C57 and BTBR mice [1]; 10 mg/kg, either strain): no significant effects

c1cc2c(cc1CC1CCCN1)OCO2 (racemic) [(R/S)-I, (R/S)-2-[(2H-1,3-benzodioxol-5-yl)methyl]pyrrolidine]
pro-social response (time with stranger mouse, social novelty preference) (C57 and BTBR mice [2]; 1 mg/kg): strongest pro-social response
pro-social response (time with stranger mouse, social novelty preference) (C57 and BTBR mice [2]; 1.8 mg/kg): the response drops

CNC(C)Cc1ccc2c(c1)OCO2 (racemic) [racemic MDMA, 1-(1,3-benzodioxol-5-yl)-N-methylpropan-2-amine, reference compound]
effect on novelty preference (time spent with dummy mouse) (C57 and BTBR mice [3]): no systematic effects
sociability (time spent with stranger mouse) (C57 and BTBR mice [4]; BTBR mice): minor increase in the sociability response
sociability (time spent with stranger mouse) (C57 and BTBR mice [4]; C57 mice): no impact
total entries during social novelty test (C57 and BTBR mice [5]): no effect
place conditioning (place preference) (C57 and BTBR mice [1]; [6]): significant place preferences

CN[C@@H](C)Cc1ccccc1 [S-methamphetamine, reference compound]
place conditioning (place preference) (C57 and BTBR mice [1]; 1.0 and 3.0 mg/kg, x3 pairings, C57 and BTBR mice): significant place preferences in C57 mice only
